Source: patent US20240016785A1 (Delta 4 GmbH, priority 2020, published 2024)

Key:
[1] = system: podocytes of animals with adriamycin induced nephropathy; details: animals treated with clopidogrel as in Example 2, vs untreated adriamycin nephropathy animals
[2] = system: adriamycin induced nephropathy in BALB/c mice
Procedure: Control mice were injected with 0.9% saline. At least 6 mice were analyzed per group. Mice were monitored daily for signs of pain, altered movement, or reduced food uptake and sacrificed by cervical dislocation. Tested drugs were administered per oral administration via pre-mixed chow at drug doses based on literature research.
Urinary albumin levels were assessed by ELISA, urinary total protein and urinary creatinine levels were measured on the Roche Cobas system, using routine laboratory kits. Urinary protein/creatinine (UPCR) ratio and urinary albumin/creatinine ratio (UACR) were assessed at different time points. Weight and physical fitness scores were monitored on a daily basis. At the end of the experiment, tissue sections, plasma and urine samples were collected and stored until further analysis.
Repeated measures ANOVA across timepoints was calculated using the R statistical software framework.

[3] = system: Adriamycin nephropathy in Balb/c mice
Procedure: Adriamycin (Doxorubicin; Sigma, D1515-10 mg) was diluted in ddH2O. To induce FSGS, a dose of 10.5 mg/kg mouse was injected i.v. into the tail vein using 27G needles, i. e. a total volume of 200 μl volume per 25 g mouse.
For tail vein injection, mice were anaesthetized using Ketanest (Pfizer, 25 mg/ml vials) and Rompun (Bayer, 20 mg/ml injection solution). A final mix of 12.5 mg/ml Ketanest and 0.25% Rompun in 0.9% NaCl solution was prepared and 200 μl/25 g mouse were injected.
Female Balb/c mice were obtained from the animal breeding facility of the Medical University (Abteilung kir Labortierkunde, Himberg, Austria). 12-16 weeks old animals with a weight >20 g were used for the experiments and adjusted for weight and age. Animals were allowed acclimatization of at least 7 days. Animals were marked by ear or toe clip codes to allow identification. Adriamycin nephropathy in Balb/c mice is the most commonly used animal model for preclinical FSGS studies and shares the central features with human FSGS.
Standard commercial chow from ssniff (ssniff Spezialdiaten GmbH, Soest, Germany) contained crude protein (19%), crude fat (3.3%), crude fiber (4.9%), crude ash (6.4%), starch (36.5%), sugar (4.7%). […] All animals were allowed to eat ad libitum assuming a daily average uptake of ˜4 grams/mouse (according to animal care guideline of the Johns Hopkins University,
Spot urine was collected every week and Creatinine and protein levels were measured.
Urinary albumin was measured by ELISA. 96-well plates were coated over night at 4° C. with 100 μl antibody solution Anti Mouse Serum Albumin antibody (Abcam ab34807, Lot GR3242102-4; diluted 1:2,000) in coating buffer (3.7 g NaHCO3; 0,64 g Na2CO3; 1L distilled water). The remaining procedure was performed at room temperature. Wells were washed 3× with HBSS (Sigma H8264-500 ML) +0,05% Tween-20 (Bio-Rad, #1706531) and blocked in ELISA/ELISPOT Diluent (eBioscience, 00-4202-56) and washed again for 3×. Samples and standard curve were both diluted in ELISA/ELISPOT diluent were incubated for 2 h, followed by 3 wash steps with HBSS+0,05% Tween-20, incubated with HRP antibody Anti Mouse Serum Albumin antibody (Abcam ab19195, Lot GR3242102-4; diluted 1:100,000) for 1 h, followed by 5 wash steps. Reaction was developed with TMB One Solution (Promega, G7431) and stopped with 2N H2SO4. Standard curves were generated with Mouse Albumin (Merck/Sigma, 126674-25MG). 450 nm absorbance was measured on an Epoch Microplate reader (BioTek) using GenS 1.10 software.
At the end of the experiment kidneys were removed, embedded in paraffin and PAS (Periodic acid-Schiff) staining was performed. Histology was thoroughly evaluated and the amount of sclerotic glomeruli and protein casts was quantified.
R version 4.0.2 was used for statistical analysis. Student's t-test was used for comparing UPCR and UACR values between samples from treated and control mice for each individual time point and to assess differences in histological parameters. Repeated measures ANOVA was performed to analyse the drug's impact on UPCR and UACR over time using the respective functions in the rstatix package (V0.6.0). ggplot2 (V3.3.2) and ggpubr (V0.4.0) packages were used for generating the graphical visualizations.
In two independent experiments (Experiment 1 and 2), 34 female Balb/c mice were injected with 10.5 mg/kg adriamycin into the tail vein (see table 2). […] Spot urine was collected weekly, kidneys were harvested at sacrifice. 10.5 mg/kg Adriamycin were injected into the tail vein. […] Urine was collected and weight was measured weekly. The experiments lasted about 5 weeks.

Compound: COC(=O)[C@H](c1ccccc1Cl)N1CCc2sccc2C1 [Clopidogrel, (S)-Methyl-(2-chlorphenyl)-2-(6,7-dihydro-4H-thieno[3,2-c]pyridin-5-yl)acetate]
- podocyte injury (podocytopathy) by electron microscopy [1]: significantly reduced podocyte injury
- UPCR at 37 days after start, compared with Ctrl mice ([2]; FIG. 1, mice could recover from Adriamycin induced FSGS in this experiment): reduced to similar levels
- effect of drug administration on UPCR, repeated measures ANOVA across timepoints ([2]; adriamycin approx. 9 mg/kg, drug via pre-mixed chow, p=0.009 (drug)): significant
- glomerular sclerosis index (sclerotic glomeruli of all glomeruli), highest reached in any sample ([3]; PAS staining, untreated control group went up to 35%): ≤ 4%
- reduction of UPCR (urinary protein to creatinine ratio) ([3]; both experiments together, average across all time points, chow + 200 mg/kg Clopidogrel (~25-30 mg/kg mouse/day) from 48 h after adriamycin 10.5 mg/kg i.v., vs control mice): 49%
- reduction of UACR (urinary albumin to creatinine ratio) ([3]; both experiments together, average across all time points, chow + 200 mg/kg Clopidogrel, vs control mice): 61%
- average histopathological damage score ([3]; clopidogrel-treated group, control average 2.67, p=0.038): 0.86
- severe disease (glomerular sclerosis) ([3]; histopathology, FIG. 8A, B): completely prevented severe disease
- reduction of ADR-associated weight loss ([3]; overall, both experiments, weight measured weekly, vs control mice): 48%
- tubular ectasia, determined by protein cylinders in PAS staining ([3]; vs control group, FIG. 8C): strongly ameliorated
- weight loss compared to control mice ([3]; weekly over the course of the experiments): less weight loss
